# Where two headings read alike, the source gives them in different places.
# Assays:
# Assay type in all cases: cell-based
# E. coli = experiment: In vitro antibacterial activity, microdilution MIC, E. coli; details: Escherichia coli, microdilution method, read-out: Minimal Inhibitory Concentration MIC
# Source text: (§1) The compounds of the invention display antibacterial activity when tested by the microdilution method as described in Heifetz, et al, Antimicr. Agents and Chemoth., 6, 124 (1974), which is incorporated herein by reference.
# (§2) By use of this method, the following minimum inhibitory concentration values (MICs in μg/ml) were obtained for representative compounds of the invention.
# P. rettgeri = experiment: In vitro antibacterial activity, microdilution MIC, P. rettgeri; details: Providencia rettgeri, microdilution method, read-out: Minimal Inhibitory Concentration MIC
# Source text: as §1, §2
# P. aeruginosa = experiment: In vitro antibacterial activity, microdilution MIC, P. aeruginosa; details: Pseudomonas aeruginosa, microdilution method, read-out: Minimal Inhibitory Concentration MIC
# Source text: as §1, §2
# S. pneumoniae = experiment: In vitro antibacterial activity, microdilution MIC, S. pneumoniae; details: Streptococcus pneumoniae, microdilution method, read-out: Minimal Inhibitory Concentration MIC
# Source text: as §1, §2
# S. aureus = experiment: In vitro antibacterial activity, microdilution MIC, S. aureus; details: microdilution method; for MIC: Staphylococcus aureus, first S. aureus line (strain not given), read-out: Minimal Inhibitory Concentration MIC; for Minimal Inhibitory Concentration MIC: second S. aureus line (strain not given)
# Source text: as §1, §2
# E. cloacae = experiment: In vitro antibacterial activity, microdilution MIC, E. cloacae; details: Enterobacter cloacae, microdilution method, read-out: Minimal Inhibitory Concentration MIC
# Source text: as §1, §2
# K. pneumoniae = experiment: In vitro antibacterial activity, microdilution MIC, K. pneumoniae; details: Klebsiella pneumoniae, microdilution method, read-out: Minimal Inhibitory Concentration MIC
# Source text: as §1, §2
# S. faecalis = experiment: In vitro antibacterial activity, microdilution MIC, S. faecalis; details: Enterococcus faecalis, microdilution method, read-out: Minimal Inhibitory Concentration MIC
# Source text: as §1, §2
# S. pyogenes = experiment: In vitro antibacterial activity, microdilution MIC, S. pyogenes; details: Streptococcus pyogenes, microdilution method, read-out: Minimal Inhibitory Concentration MIC
# Source text: as §1, §2
# [1] = first E. coli line (strain not given)
# [2] = second E. coli line, last of table (strain not given)
Compound,MIC (E. coli; [1]),MIC (E. coli; [2]),MIC (P. rettgeri),MIC (P. aeruginosa),MIC (S. pneumoniae),MIC (S. aureus),Minimal Inhibitory Concentration MIC (S. aureus),MIC (E. cloacae),MIC (K. pneumoniae),MIC (S. faecalis),MIC (S. pyogenes)
"C=Cc1c(F)cc2c(=O)c(C(=O)O)cn(C3CC3)c2c1F [Compound 5, 1-Cyclopropyl-7-ethenyl-6,8-difluoro-1,4-dihydro-4-oxo-3-quinolinecarboxylic acid]",0.2 µg/mL,0.1 µg/mL,0.4 µg/mL,1.6 µg/mL,0.8 µg/mL,≤ 0.025 µg/mL,≤ 0.025 µg/mL,0.1 µg/mL,0.4 µg/mL,0.2 µg/mL,0.8 µg/mL
CCn1cc(C(=O)O)c(=O)c2cc(F)c(C3CCN(Cc4ccccc4)C3)nc21 (stereo not shown) [Compound 10],12.5 µg/mL,12.5 µg/mL,> 25 µg/mL,> 25 µg/mL,12.5 µg/mL,6.3 µg/mL,6.3 µg/mL,12.5 µg/mL,25 µg/mL,25 µg/mL,12.5 µg/mL

# Source: patent US4945160A, “Preparation of certain 7-substituted quinolones” (Warner-Lambert Company, priority 1988, dated 1990)
